The values below come from ChEMBL document CHEMBL6103564, “Selective Degradation of TEADs by a PROTAC Molecule Exhibited Robust Anticancer Efficacy In Vitro and In Vivo” (J Med Chem, 2025).

The nature of data set [1]: in vivo. To be noted: ICR, mouse, iv, 5 mg/kg.
A short description of data set [2]: in vivo. To be noted: ICR, mouse, iv, 5 mg/kg. This is another data set of the same source.
Data set [3] can be described thus: in vivo. To be noted: ICR, mouse, ip, 10 mg/kg.
A short description of data set [4]: in vivo. To be noted: ICR, mouse, iv, 5 mg/kg. The source holds these as a separate data set.
Data set [5] is described as follows: in vivo. To be noted: ICR, mouse, ip, 10 mg/kg. This is another data set of the same source.
Data set [6] can be described thus: in vivo. To be noted: ICR, mouse, ip, 10 mg/kg. The source holds these as a separate data set.
The nature of data set [7]: in vivo. To be noted: ICR, mouse, iv, 5 mg/kg. This is another data set of the same source.
Data set [8] is described as follows: in vivo. To be noted: ICR, mouse, iv, 5 mg/kg. This is another data set of the same source.
The nature of data set [9]: in vivo. To be noted: ICR, mouse, iv, 5 mg/kg. This is another data set of the same source.
Data set [10] in a line: in vivo. To be noted: ICR, mouse, po, 5 mg/kg.
Data set [11] can be described thus: in vivo. To be noted: ICR, mouse, po, 10 mg/kg.
Data set [12] can be described thus: in vivo. To be noted: ICR, mouse, po, 5 mg/kg. This is another data set of the same source.
Data set [13] is described as follows: in vivo. To be noted: ICR, mouse, iv, 5 mg/kg. The source holds these as a separate data set.
Data set [14] is described as follows: in vivo. To be noted: ICR, mouse, po, 5 mg/kg. The source holds these as a separate data set.
A short description of data set [15]: in vivo. To be noted: ICR, mouse, ip, 10 mg/kg. The source holds these as a separate data set.
Data set [16] can be described thus: in vivo. To be noted: ICR, mouse, ip, 10 mg/kg. The source holds these as a separate data set.
The nature of data set [17]: in vivo. To be noted: ICR, mouse, po, 5 mg/kg. This is another data set of the same source.

Each structure is given as a SMILES string.

By half-life is commonly meant how long it takes for the measured level to halve. The term Vd denotes a proportionality between amount in the body and measured concentration, not a real space. A low value points to confinement near the circulation. As a reminder, the MRT is the average time that molecules of a dose stay in the body. The term AUC(0-inf) denotes the area under the concentration-time curve extrapolated to infinity. Lower therefore signals less exposure. What is called AUC(0-t) is the area under the concentration-time curve up to a stated or last time point. A word on the clearance: it is the rate of elimination divided by the concentration. Low values mean inefficient removal, high ones efficient removal. As a reminder, the Cmax is the peak of the concentration-time curve.

For `COCCOc1ccc(C(N)=O)c(-c2c(Cl)ccc3c2C[C@@](CNCCC2CCN(c4ccc5c(c4)C(=O)N(C4CCC(=O)NC4=O)C5=O)CC2)(c2ccccc2)O3)c1F` (some centres not stated), the half-life is 1.94 h in the data set “in vivo [1]” and 2.68 h in “in vivo [16]”. Besides, the results for the Vd in the data set “in vivo [2]” and in the data set “in vivo [4]” were 3.79 L/kg and 11.5 L/kg, respectively. Further, the MRT in “in vivo [3]” came to 2.76 h; in “in vivo [7]”, 0.69 h; in the data set “in vivo [10]” it was 0.51 h. In addition, the AUC(0-inf) in “in vivo [5]” turned out to be 3000 ng·h/mL; in “in vivo [9]” it was 1240 ng·h/mL. The results for the AUC(0-t) in “in vivo [6]”, in the data set “in vivo [8]” and in “in vivo [12]” were 2960 ng·h/mL, 1220 ng·h/mL and 5.39 ng·h/mL, respectively. Besides, the values for the bioavailability in the data set “in vivo [11]” and in “in vivo [14]” were 121% and 0.44%, respectively. This compound had a clearance in “in vivo [13]” of 70.6 mL/min/kg. Also, the maximum concentration (Cmax) in the data set “in vivo [15]” is 1160 ng/mL; in “in vivo [17]”, 7.86 ng/mL.
